Measured values published in article PMC3854447, “Functional characterisation of three members of the Vitis vinifera L. carotenoid cleavage dioxygenase gene family” (BMC Plant Biology, 2013).

Target: T1, VvCCD1 (Vitis vinifera, UniProt U3M7F6)
T1 construct: gene CCD1; 1715 bp coding region from Pinotage cDNA, NdeI/PstI in pTWIN1, expressed in carotenoid-accumulating E. coli
Assay: co-expression in carotenoid-accumulating E. coli, HS-SPME GC/MS of volatile apocarotenoid
Format: cell-based
Conditions: beta-carotene strain (pAC-BETA); product beta-ionone; Fe2+ and ascorbate added; room temperature, 16 h, dark

T1 sequence (U3M7F6 1-542): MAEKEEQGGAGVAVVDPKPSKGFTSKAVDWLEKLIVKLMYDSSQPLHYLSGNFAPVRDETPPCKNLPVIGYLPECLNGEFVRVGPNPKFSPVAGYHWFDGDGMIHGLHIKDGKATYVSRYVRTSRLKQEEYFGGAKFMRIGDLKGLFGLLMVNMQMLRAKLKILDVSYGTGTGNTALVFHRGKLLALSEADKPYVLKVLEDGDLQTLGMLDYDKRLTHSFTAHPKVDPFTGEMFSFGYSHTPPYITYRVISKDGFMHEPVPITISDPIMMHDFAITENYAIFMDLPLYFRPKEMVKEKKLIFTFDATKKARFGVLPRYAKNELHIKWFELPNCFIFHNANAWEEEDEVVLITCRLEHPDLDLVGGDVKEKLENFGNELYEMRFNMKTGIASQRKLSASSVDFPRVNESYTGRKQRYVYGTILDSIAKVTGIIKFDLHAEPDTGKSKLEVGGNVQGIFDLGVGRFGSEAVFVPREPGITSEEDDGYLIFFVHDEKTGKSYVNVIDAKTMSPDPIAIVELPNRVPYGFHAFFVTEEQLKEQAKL

## CC1=C(/C=C/C(C)=C/C=C/C(C)=C/C=C/C=C(C)/C=C/C=C(C)/C=C/C2=C(C)CCCC2(C)C)C(C)(C)CCC1 [β-carotene]
  co-expression in carotenoid-accumulating E. coli, HS-SPME GC/MS of volatile apoc: Only VvCCD1, however, catalysed β-carotene cleavage to form β-ionone
